According to article PMC8351594, “Design of Novel Amphipathic α-Helical Antimicrobial Peptides with No Toxicity as Therapeutics against the Antibiotic-Resistant Gram-Negative Bacterial Pathogen, Acinetobacter Baumannii” (Journal of medicinal chemistry and drug design, 2019):
In brackets after ≈: the same amount, converted by molar mass. Square brackets hold non-standard residues; d marks the D form. Peptide text beside a SMILES is read from it. Dab = NCC[C@H](N)C(=O)O; Dap = NC[C@H](N)C(=O)O

Columns and labels:
Conditions in all cases: Mueller-Hinton medium, 37°C, 24 h, inoculum 5 × 10^5 CFU/mL; MIC based on three sets of determinations
[1] = tested on: Acinetobacter baumannii MB9951
Protocol: (§1) The A. baumannii strains used in this study consisted of seven strains resistant to Polymyxin B and Colistin (antibiotics of last resort) obtained from MERCK (M89941, M89949, M89951, M89952, M89953, M89955 and M89963). The MICGM in this case is the geometric mean MIC from the seven Acinetobacter baumannii strains used in this study.
(§2) The minimal inhibitory concentration (MIC) is defined as the lowest peptide concentration that inhibited bacterial growth. MICs were measured by a standard microtiter dilution method in Mueller Hinton (MH) medium. Briefly, cells were grown overnight at 37°C in MH broth and were diluted in the same medium. […] The plates were incubated at 37°C for 24h, and the MICs were determined. The MICGM is the geometric mean of the number of MIC values.

[2] = tested on: Acinetobacter baumannii MB9952
Protocol: as §1, §2

[3] = tested on: Acinetobacter baumannii MB9963
Protocol: as §1, §2

[4] = tested on: Acinetobacter baumannii MB9941
Protocol: as §1, §2

[5] = tested on: Acinetobacter baumannii MB9953
Protocol: as §1, §2

[6] = tested on: Acinetobacter baumannii MB9949
Protocol: as §1, §2

[7] = tested on: Acinetobacter baumannii MB9955
Protocol: as §1, §2

SMILES	MIC MB9951 [1]	MIC MB9952 [2]	MIC MB9963 [3]	MIC MB9941 [4]	MIC MB9953 [5]	MIC MB9949 [6]	MIC MB9955 [7]
CC(=O)N[C@H](CCCCN)C(=O)N[C@H](CC(C)C)C(=O)N[C@H](CCCCN)C(=O)N[C@H](CO)C(=O)N[C@H](CC(C)C)C(=O)N[C@H](CC(C)C)C(=O)N[C@H](CCCCN)C(=O)N[C@@H](C(=O)N[C@H](CC(C)C)C(=O)N[C@H](CO)C(=O)N[C@H](CCCCN)C(=O)N[C@H](C)C(=O)N[C@H](CCCCN)C(=O)N[C@H](C)C(=O)N[C@H](C)C(=O)N[C@H](CCCCN)C(=O)N[C@H](CC(C)C)C(=O)N[C@H](CCCCN)C(=O)N[C@@H](C(=O)N[C@H](CC(C)C)C(=O)N[C@H](CC(C)C)C(=O)N[C@H](CCCCN)C(=O)N[C@H](C)C(=O)N[C@H](CC(C)C)C(=O)N[C@H](CO)C(=O)N[C@H](CCCCN)C(N)=O)[C@H](C)O)[C@H](C)O [D84(Lys^1-6 Lys-1)] (Ac-[dK][dL][dK][dS][dL][dL][dK][dT][dL][dS][dK][dA][dK][dA][dA][dK][dL][dK][dT][dL][dL][dK][dA][dL][dS][dK]-NH2)	0.3 µM (≈ 0.86 µg/mL)	0.7 µM (≈ 2.01 µg/mL)	0.7 µM (≈ 2.01 µg/mL)	0.3 µM (≈ 0.86 µg/mL)	0.7 µM (≈ 2.01 µg/mL)	0.7 µM (≈ 2.01 µg/mL)	0.3 µM (≈ 0.86 µg/mL)
CC(=O)N[C@H](CCCCN)C(=O)N[C@H](CC(C)C)C(=O)N[C@@H](CCN)C(=O)N[C@H](CO)C(=O)N[C@H](CC(C)C)C(=O)N[C@H](CC(C)C)C(=O)N[C@@H](CCN)C(=O)N[C@@H](C(=O)N[C@H](CC(C)C)C(=O)N[C@H](CO)C(=O)N[C@@H](CCN)C(=O)N[C@H](C)C(=O)N[C@H](CCCCN)C(=O)N[C@H](C)C(=O)N[C@H](C)C(=O)N[C@H](CCCCN)C(=O)N[C@H](CC(C)C)C(=O)N[C@@H](CCN)C(=O)N[C@@H](C(=O)N[C@H](CC(C)C)C(=O)N[C@H](CC(C)C)C(=O)N[C@@H](CCN)C(=O)N[C@H](C)C(=O)N[C@H](CC(C)C)C(=O)N[C@H](CO)C(=O)N[C@@H](CCN)C(N)=O)[C@H](C)O)[C@H](C)O [D86(Lys^1-6 Dab-1)] (Ac-[dK][dL][Dab][dS][dL][dL][Dab][dT][dL][dS][Dab][dA][dK][dA][dA][dK][dL][Dab][dT][dL][dL][Dab][dA][dL][dS][Dab]-NH2)	0.8 µM (≈ 2.16 µg/mL)	0.8 µM (≈ 2.16 µg/mL)	0.8 µM (≈ 2.16 µg/mL)	1.5 µM (≈ 4.05 µg/mL)	0.8 µM (≈ 2.16 µg/mL)	0.8 µM (≈ 2.16 µg/mL)	0.8 µM (≈ 2.16 µg/mL)
CC(=O)N[C@H](CCCCN)C(=O)N[C@H](CC(C)C)C(=O)N[C@H](CCCCN)C(=O)N[C@H](CO)C(=O)N[C@H](CC(C)C)C(=O)N[C@H](CC(C)C)C(=O)N[C@H](CCCCN)C(=O)N[C@@H](C(=O)N[C@H](CC(C)C)C(=O)N[C@H](CO)C(=O)N[C@H](C)C(=O)N[C@H](C)C(=O)N[C@H](CCCCN)C(=O)N[C@H](CCCCN)C(=O)N[C@H](CCCCN)C(=O)N[C@H](CCCCN)C(=O)N[C@H](CC(C)C)C(=O)N[C@H](C)C(=O)N[C@@H](C(=O)N[C@H](CC(C)C)C(=O)N[C@H](CC(C)C)C(=O)N[C@H](CCCCN)C(=O)N[C@H](C)C(=O)N[C@H](CC(C)C)C(=O)N[C@H](CO)C(=O)N[C@H](CCCCN)C(N)=O)[C@H](C)O)[C@H](C)O [D88(Lys^1-6 Lys-2)] (Ac-[dK][dL][dK][dS][dL][dL][dK][dT][dL][dS][dA][dA][dK][dK][dK][dK][dL][dA][dT][dL][dL][dK][dA][dL][dS][dK]-NH2)	0.3 µM (≈ 0.86 µg/mL)	0.3 µM (≈ 0.86 µg/mL)	0.4 µM (≈ 1.15 µg/mL)	0.7 µM (≈ 2.01 µg/mL)	0.3 µM (≈ 0.86 µg/mL)	0.7 µM (≈ 2.01 µg/mL)	0.3 µM (≈ 0.86 µg/mL)
CC(=O)N[C@H](CCCCN)C(=O)N[C@H](CC(C)C)C(=O)N[C@@H](CCN)C(=O)N[C@H](CO)C(=O)N[C@H](CC(C)C)C(=O)N[C@H](CC(C)C)C(=O)N[C@@H](CCN)C(=O)N[C@@H](C(=O)N[C@H](CC(C)C)C(=O)N[C@H](CO)C(=O)N[C@H](C)C(=O)N[C@H](C)C(=O)N[C@H](CCCCN)C(=O)N[C@@H](CCN)C(=O)N[C@@H](CCN)C(=O)N[C@H](CCCCN)C(=O)N[C@H](CC(C)C)C(=O)N[C@H](C)C(=O)N[C@@H](C(=O)N[C@H](CC(C)C)C(=O)N[C@H](CC(C)C)C(=O)N[C@@H](CCN)C(=O)N[C@H](C)C(=O)N[C@H](CC(C)C)C(=O)N[C@H](CO)C(=O)N[C@@H](CCN)C(N)=O)[C@H](C)O)[C@H](C)O [D89(Lys^1-6 Dab-2)] (Ac-[dK][dL][Dab][dS][dL][dL][Dab][dT][dL][dS][dA][dA][dK][Dab][Dab][dK][dL][dA][dT][dL][dL][Dab][dA][dL][dS][Dab]-NH2)	0.7 µM (≈ 1.89 µg/mL)	0.7 µM (≈ 1.89 µg/mL)	0.7 µM (≈ 1.89 µg/mL)	0.7 µM (≈ 1.89 µg/mL)	0.7 µM (≈ 1.89 µg/mL)	0.7 µM (≈ 1.89 µg/mL)	0.7 µM (≈ 1.89 µg/mL)
CC(=O)N[C@H](CCCCN)C(=O)N[C@H](CC(C)C)C(=O)N[C@H](CCCCN)C(=O)N[C@H](CO)C(=O)N[C@H](CC(C)C)C(=O)N[C@H](CC(C)C)C(=O)N[C@H](CCCCN)C(=O)N[C@@H](C(=O)N[C@H](CC(C)C)C(=O)N[C@H](CO)C(=O)N[C@H](CCCCN)C(=O)N[C@H](C)C(=O)N[C@H](CCCCN)C(=O)N[C@H](C)C(=O)N[C@H](C)C(=O)N[C@H](CCCCN)C(=O)N[C@H](CC(C)C)C(=O)N[C@H](CCCCN)C(=O)N[C@@H](C(=O)N[C@H](CC(C)C)C(=O)N[C@H](CC(C)C)C(=O)N[C@H](CCCCN)C(=O)N[C@H](C)C(=O)N[C@H](CC(C)C)C(=O)N[C@H](CO)C(=O)N[C@H](CO)C(N)=O)[C@H](C)O)[C@H](C)O [D101(Lys^1Ser^26-5 Lys-1)] (Ac-[dK][dL][dK][dS][dL][dL][dK][dT][dL][dS][dK][dA][dK][dA][dA][dK][dL][dK][dT][dL][dL][dK][dA][dL][dS][dS]-NH2)	0.7 µM (≈ 1.98 µg/mL)	0.7 µM (≈ 1.98 µg/mL)	0.7 µM (≈ 1.98 µg/mL)	0.7 µM (≈ 1.98 µg/mL)	1.5 µM (≈ 4.24 µg/mL)	0.7 µM (≈ 1.98 µg/mL)	0.7 µM (≈ 1.98 µg/mL)
CC(=O)N[C@H](CCCCN)C(=O)N[C@H](CC(C)C)C(=O)N[C@@H](CCN)C(=O)N[C@H](CO)C(=O)N[C@H](CC(C)C)C(=O)N[C@H](CC(C)C)C(=O)N[C@@H](CCN)C(=O)N[C@@H](C(=O)N[C@H](CC(C)C)C(=O)N[C@H](CO)C(=O)N[C@H](C)C(=O)N[C@H](C)C(=O)N[C@H](CCCCN)C(=O)N[C@@H](CCN)C(=O)N[C@@H](CCN)C(=O)N[C@H](CCCCN)C(=O)N[C@H](CC(C)C)C(=O)N[C@H](C)C(=O)N[C@@H](C(=O)N[C@H](CC(C)C)C(=O)N[C@H](CC(C)C)C(=O)N[C@@H](CCN)C(=O)N[C@H](C)C(=O)N[C@H](CC(C)C)C(=O)N[C@H](CO)C(=O)N[C@H](CO)C(N)=O)[C@H](C)O)[C@H](C)O [D104(Lys^1Ser^26-5 Dab-2)] (Ac-[dK][dL][Dab][dS][dL][dL][Dab][dT][dL][dS][dA][dA][dK][Dab][Dab][dK][dL][dA][dT][dL][dL][Dab][dA][dL][dS][dS]-NH2)	0.7 µM (≈ 1.88 µg/mL)	0.7 µM (≈ 1.88 µg/mL)	0.7 µM (≈ 1.88 µg/mL)	0.7 µM (≈ 1.88 µg/mL)	1.5 µM (≈ 4.03 µg/mL)	0.7 µM (≈ 1.88 µg/mL)	0.7 µM (≈ 1.88 µg/mL)
CC(=O)N[C@H](CCCCN)C(=O)N[C@H](CC(C)C)C(=O)N[C@@H](CN)C(=O)N[C@H](CO)C(=O)N[C@H](CC(C)C)C(=O)N[C@H](CC(C)C)C(=O)N[C@@H](CN)C(=O)N[C@@H](C(=O)N[C@H](CC(C)C)C(=O)N[C@H](CO)C(=O)N[C@H](C)C(=O)N[C@H](C)C(=O)N[C@H](CCCCN)C(=O)N[C@@H](CN)C(=O)N[C@@H](CN)C(=O)N[C@H](CCCCN)C(=O)N[C@H](CC(C)C)C(=O)N[C@H](C)C(=O)N[C@@H](C(=O)N[C@H](CC(C)C)C(=O)N[C@H](CC(C)C)C(=O)N[C@@H](CN)C(=O)N[C@H](C)C(=O)N[C@H](CC(C)C)C(=O)N[C@H](CO)C(=O)N[C@@H](CN)C(N)=O)[C@H](C)O)[C@H](C)O [D106(Lys^1-6 Dap-2)] (Ac-[dK][dL][Dap][dS][dL][dL][Dap][dT][dL][dS][dA][dA][dK][Dap][Dap][dK][dL][dA][dT][dL][dL][Dap][dA][dL][dS][Dap]-NH2)	1.5 µM (≈ 3.92 µg/mL)	0.8 µM (≈ 2.09 µg/mL)	0.8 µM (≈ 2.09 µg/mL)	0.8 µM (≈ 2.09 µg/mL)	0.8 µM (≈ 2.09 µg/mL)	0.8 µM (≈ 2.09 µg/mL)	0.4 µM (≈ 1.05 µg/mL)
